This note sets out measurements from patent publication US10975068B2, “6-aminopyridin-3-yl thiazoles as modulators of RORγT” (Janssen Pharmaceutica NV, priority 2016, dated 2021).

The structures appear in SMILES notation. Where two headings read alike, the source gives them in different places. Marks after values point to notes of the source that are not given here.

The target of experiment [1] is human RORγt ligand binding domain (RORγt LBD) (Homo sapiens (Human), UniProt P51449). The experiment can be described thus: RORγt ThermoFluor® assay (thermal shift binding). The settings on record: read-out: ThermoFluor® Assay, Kd. The gist of the method:
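His-tagged human RORγt LBD (0.065 mg/mL) with 60 μM 1,8-ANS in 100 mM Hepes pH 7.0, 10 mM NaCl, 2.5 mM GSH, 0.002% Tween-20 was heated at 1 °C/min.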

The next experiment concerns the target full-length human RORγt (Homo sapiens (Human), UniProt P51449). The experiment can be described thus: RORγt (full-length human) reporter assay, Conditions B or C. Format: cell-based. The conditions noted are these: for inhibition at 3 µM: read-out: RORγt (FL) Reporter Assay B or C, % inhibition; for RORγt (FL) Reporter Assay B or C, % inhibition (value marked *): marked *: footnote not given. The gist of the method: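 HEK293T cells transiently co-transfected with GAL4-DBD–full-length human RORγt (nt 142-1635, NM_001001523.1) plus GAL4-firefly and CMV-Renilla luciferase reporters; compounds added 4-6 h post-transfection for 16-20 h in 1.3% FBS, 0.1% DMSO. Firefly signal normalized to DMSO and saturating reference compound, then to Renilla; IC50 from concentration plots.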

The mark [2] stands for this setting: Conditions B or C, read-out: RORγt (FL) Reporter Assay B or C, IC50.
Setting [3] is: read-out: RORγt (FL) Reporter Assay B or C, IC50.

Usually Kd stands for the constant that tells how readily two partners part at equilibrium. By IC50 is commonly meant the point on the concentration scale where inhibition reaches its midpoint. For orientation: inhibition means the change of the read-out against control, counted positive when it falls.

Sequence of full-length human RORγt (P51449 other isoform, or with tags, fused parts or gaps): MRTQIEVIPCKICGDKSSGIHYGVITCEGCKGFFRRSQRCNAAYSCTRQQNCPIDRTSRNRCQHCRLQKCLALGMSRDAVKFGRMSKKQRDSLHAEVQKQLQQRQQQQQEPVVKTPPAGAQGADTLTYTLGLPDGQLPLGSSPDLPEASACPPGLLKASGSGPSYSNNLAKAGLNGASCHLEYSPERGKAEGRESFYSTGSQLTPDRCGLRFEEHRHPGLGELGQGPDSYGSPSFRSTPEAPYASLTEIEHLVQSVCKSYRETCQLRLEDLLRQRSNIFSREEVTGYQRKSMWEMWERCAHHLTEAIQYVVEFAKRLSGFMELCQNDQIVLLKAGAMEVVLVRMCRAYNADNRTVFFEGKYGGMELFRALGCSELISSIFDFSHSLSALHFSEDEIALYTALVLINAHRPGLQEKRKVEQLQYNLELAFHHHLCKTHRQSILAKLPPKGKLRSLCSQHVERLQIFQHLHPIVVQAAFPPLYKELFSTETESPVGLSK
Sequence of human RORγt ligand binding domain (RORγt LBD) (P51449 other isoform, or with tags, fused parts or gaps): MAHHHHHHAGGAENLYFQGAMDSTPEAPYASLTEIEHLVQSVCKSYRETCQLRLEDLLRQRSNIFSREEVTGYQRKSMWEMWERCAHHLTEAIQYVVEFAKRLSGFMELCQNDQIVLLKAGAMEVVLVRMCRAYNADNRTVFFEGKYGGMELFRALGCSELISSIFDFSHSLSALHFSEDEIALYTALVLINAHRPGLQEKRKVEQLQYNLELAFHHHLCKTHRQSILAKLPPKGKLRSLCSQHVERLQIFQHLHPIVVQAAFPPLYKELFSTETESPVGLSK

With `C[C@H]1CC(F)(F)CN1C(=O)c1nc(C(=O)NCC(C)(C)O)sc1-c1cnc(NC(C2CC2)C2CC2)cc1C(F)(F)F` [Example 138, (S)-5-(6-((Dicyclopropylmethyl)amino)-4-(trifluoromethyl)pyridin-3-yl)-4-(4,4-difluoro-2-methylpyrrolidine-1-carbonyl)-N-(2-hydroxy-2-methylpropyl)thiazole-2-carboxamide], the Kd in experiment [1] turned out to be 0.62 nM. Besides, the “RORγt (FL) Reporter Assay B or C, % inhibition (value marked ***)” value at full-length human RORγt (Conditions B or C, marked ***: footnote not given) was 100*** %. Further, the IC50 on full-length human RORγt (setting [2]) was found to be 0.012 µM.

On to `CC[C@H](Nc1cc(C(F)F)c(-c2sc(C(=O)N3CC4CC(C3)O4)nc2C(=O)N2CCC[C@@H]2C)cn1)C(F)(F)F` [Example 392, [5-[4-(Difluoromethyl)-6-[[(1S)-1-(trifluoromethyl)propyl]amino]-3-pyridyl]-2-(6-oxa-3-azabicyclo[3.1.1]heptane-3-carbonyl)thiazol-4-yl]-[(2S)-2-methylpyrrolidin-1-yl]methanone], for which, in experiment [1], the Kd turned out to be 44 nM. Moreover, the inhibition at 3 µM on full-length human RORγt (at 3 μM compound concentration) came to 102%. Besides, the IC50 on full-length human RORγt (setting [3]) was determined as 0.13 µM.

Regarding `CC(C)(O)CNC(=O)c1nc(C(=O)N2C3CCC2CC3)c(-c2cnc(NC3CCCC3)cc2C(F)F)s1` [Example 46, 4-((1s,4s)-7-Azabicyclo[2.2.1]heptane-7-carbonyl)-5-(6-(cyclopentylamino)-4-(difluoromethyl)pyridin-3-yl)-N-(2-hydroxy-2-methylpropyl)thiazole-2-carboxamide], in experiment [1], the Kd turned out to be 4.2 nM. The “RORγt (FL) Reporter Assay B or C, % inhibition (value marked *)” value (shortened to “RORγt … % inhibition (value marked *)”) on full-length human RORγt (Conditions B or C) is on record as 100* %. Further, the IC50 on full-length human RORγt (setting [2]) turned out to be 0.029 µM.

As to `CC(C)[C@@H](C)NC(=O)c1nc(C(=O)N2CCC[C@@H]2C)c(-c2cnc(NC(C)(C)C)cc2C(F)(F)F)s1` [Example 341, 5-[6-(tert-Butylamino)-4-(trifluoromethyl)-3-pyridyl]-N-[(1R)-1,2-dimethylpropyl]-4-[(2S)-2-methylpyrrolidine-1-carbonyl]thiazole-2-carboxamide], the Kd in experiment [1] worked out at 4 nM. Moreover, the inhibition at 3 µM at full-length human RORγt (at 3 μM compound concentration) came to 107%. Moreover, at full-length human RORγt (setting [3]), the IC50 turned out to be 0.0057 µM.

For `C[C@H](Nc1cc(C(F)(F)F)c(-c2sc(C(=O)N[C@@H]3COC[C@H]3O)nc2C(=O)N2C3CCC2CC3)cn1)C(F)(F)F` [Example 150, 4-((1s,4s)-7-Azabicyclo[2.2.1]heptane-7-carbonyl)-N-((3R,4S)-4-hydroxytetrahydrofuran-3-yl)-5-(4-(trifluoromethyl)-6-(((1S)-2,2,2-trifluoro-1-methyl-ethyl)amino)-3-pyridyl)thiazole-2-carboxamide], the Kd in experiment [1] amounted to 3.2 nM. For the same compound, the “RORγt … % inhibition (value marked *)” value on full-length human RORγt (Conditions B or C) was 111* %. This compound returned an IC50 on full-length human RORγt (RORγt (FL) Reporter Assay B or C, IC50 (μM), Conditions B or C) of 0.035 µM.

For the compound `C[C@H](NC(=O)c1nc(C(=O)N2CC(F)(F)C[C@@H]2C)c(-c2cnc(N[C@@H](C3CC3)C(F)(F)F)cc2C(F)F)s1)C(C)(C)O` [Example 313, 5-(6-(((S)-1-Cyclopropyl-2,2,2-trifluoroethyl)amino)-4-(difluoromethyl)pyridin-3-yl)-4-((S)-4,4-difluoro-2-methylpyrrolidine-1-carbonyl)-N—((S)-3-hydroxy-3-methylbutan-2-yl)thiazole-2-carboxamide], in experiment [1], the Kd stood at 0.74 nM. For the same compound, the inhibition at 3 µM on full-length human RORγt (at 3 μM compound concentration) turned out to be 106%. Moreover, on full-length human RORγt (setting [3]), the IC50 was found to be 0.036 µM.

As to `CC[C@@H](Nc1cc(C(F)F)c(-c2sc(C(=O)N[C@@H]3COC[C@H]3O)nc2C(=O)N2CCC[C@@H]2C)cn1)C(F)(F)F` [Example 204, 5-(4-(Difluoromethyl)-6-(((1R)-1-(trifluoromethyl)propyl)amino)-3-pyridyl)-N-((3R,4S)-4-hydroxytetrahydrofuran-3-yl)-4-((2S)-2-methylpyrrolidine-1-carbonyl)thiazole-2-carboxamide], in experiment [1], the Kd was found to be 3.6 nM. The “RORγt … % inhibition (value marked *)” value at full-length human RORγt (Conditions B or C) was 105* %. Further, the IC50 on full-length human RORγt (setting [2]) was 0.024 µM.

For `CC[C@H](Nc1cc(C(F)F)c(-c2sc(C(=O)NCC(C)(C)O)nc2C(=O)N2C3CCC2CC3)cn1)C1CC1` (stereo in doubt) [Example 163, 4-((1s,4s)-7-Azabicyclo[2.2.1]heptane-7-carbonyl)-5-(6-(((S*)-1-cyclopropyl)amino)-4-(difluoromethyl)pyridine-3-yl)-N-(2-hydroxy-2-methylpropyl)thiazole-2-carboxamide], in experiment [1], the Kd was 14 nM. Besides, the “RORγt … % inhibition (value marked *)” value on full-length human RORγt (Conditions B or C) is 114* %. In addition, on full-length human RORγt (setting [2]), the half-inhibitory concentration (IC50) turned out to be 0.012 µM.

As to `C[C@H](O)[C@@H](C)NC(=O)c1nc(C(=O)N2CCC[C@@H]2C)c(-c2cnc(NC(C)(C)C)cc2C(F)(F)F)s1` (relative stereo) [Example 235, 5-(6-(tert-Butylamino)-4-(trifluoromethyl)pyridin-3-yl)-N-((2R*,3S*)-3-hydroxybutan-2-yl)-4-((S)-2-methylpyrrolidine-1-carbonyl)thiazole-2-carboxamide], in experiment [1], the Kd stood at 1.2 nM. Moreover, the “RORγt … % inhibition (value marked *)” value at full-length human RORγt (Conditions B or C) was 106* %. Also, the IC50 at full-length human RORγt (setting [2]) is 0.034 µM.

Consider `CC[C@H](Nc1cc(C(F)F)c(-c2sc(C(=O)N[C@@H](C)C(C)(C)O)nc2C(=O)N2CCCC[C@@H]2C)cn1)C(F)(F)F` [Example 247, 5-[4-(Difluoromethyl)-6-[[(1S)-1-(trifluoromethyl)propyl]amino]-3-pyridyl]-N-[(1S)-2-hydroxy-1,2-dimethyl-propyl]-4-[(2S)-2-methylpiperidine-1-carbonyl]thiazole-2-carboxamide], for which the Kd in experiment [1] was 0.28 nM. For the same compound, the “RORγt … % inhibition (value marked *)” value at full-length human RORγt (Conditions B or C) was 100* %. The IC50 on full-length human RORγt (setting [2]) stood at 0.023 µM.

Regarding `C[C@H](Nc1cc(C(F)F)c(-c2sc(C(=O)N[C@H]3CCC[C@@H]3O)nc2C(=O)N2CCC[C@@H]2C)cn1)C(F)(F)F` [Example 285, 5-(4-(Difluoromethyl)-6-(((S)-1,1,1-trifluoropropan-2-yl)amino)pyridin-3-yl)-N-((1S,2S)-2-hydroxycyclopentyl)-4-((S)-2-methylpyrrolidine-1-carbonyl)thiazole-2-carboxamide], the dissociation constant (Kd) in experiment [1] is 2.9 nM. The inhibition at 3 µM on full-length human RORγt (at 3 μM compound concentration) is 104%. Besides, the IC50 at full-length human RORγt (setting [3]) was determined as 0.064 µM.

For `CC[C@H](Nc1cc(C(F)F)c(-c2sc(C(=O)N[C@@H]3CC[C@H]3O)nc2C(=O)N2CCC[C@@H]2C)cn1)C(F)(F)F` (relative stereo) [Example 376, 5-(4-(Difluoromethyl)-6-(((S)-1,1,1-trifluorobutan-2-yl)amino)pyridin-3-yl)-N-((1R*,2R*)-2-hydroxycyclobutyl)-4-((S)-2-methylpyrrolidine-1-carbonyl)thiazole-2-carboxamide], the Kd in experiment [1] is 3.8 nM. The inhibition at 3 µM on full-length human RORγt (at 3 μM compound concentration) is 101%. The IC50 at full-length human RORγt (setting [3]) turned out to be 0.06 µM.

For `C[C@H](Nc1cc(C(F)F)c(-c2sc(C(=O)NC3CCOCC3)nc2C(=O)N2CCC[C@@H]2C)cn1)C(F)(F)F` [Example 287, 5-(4-(Difluoromethyl)-6-(((S)-1,1,1-trifluoropropan-2-yl)amino)pyridin-3-yl)-4-((S)-2-methylpyrrolidine-1-carbonyl)-N-(tetrahydro-2H-pyran-4-yl)thiazole-2-carboxamide], the Kd in experiment [1] worked out at 4.3 nM. The inhibition at 3 µM on full-length human RORγt (at 3 μM compound concentration) is 109%. Besides, on full-length human RORγt (setting [3]), the IC50 is 0.034 µM.

Regarding `C[C@H](Nc1cc(C(F)F)c(-c2sc(C(=O)N3CC(S(C)(=O)=O)C3)nc2C(=O)N2CCC[C@@H]2C)cn1)C(F)(F)F` [Example 450], the Kd in experiment [1] stood at 50 nM. The inhibition at 3 µM on full-length human RORγt (at 3 μM compound concentration) stood at 106%. For the same compound, the IC50 on full-length human RORγt (setting [3]) came out at 0.23 µM.

`CCNC(=O)c1nc(C(=O)N2CCC[C@@H]2C)c(-c2cnc(NC(C)(C)C)cc2C(F)(F)F)s1` [Example 309, (S)-5-(6-(tert-Butylamino)-4-(trifluoromethyl)pyridin-3-yl)-N-ethyl-4-(2-methylpyrrolidine-1-carbonyl)thiazole-2-carboxamide]: the Kd in experiment [1] was determined as 16 nM. Further, the inhibition at 3 µM on full-length human RORγt (at 3 μM compound concentration) is 95%. For the same compound, the IC50 at full-length human RORγt (setting [3]) was 0.013 µM.

Consider `C[C@H]1CCCN1C(=O)c1nc(C(=O)NC(C)(C)C(C)(C)O)sc1-c1cnc(NC(C)(C)C)cc1C(F)(F)F` [Example 342, 5-[6-(tert-Butylamino)-4-(trifluoromethyl)-3-pyridyl]-N-(2-hydroxy-1,1,2-trimethyl-propyl)-4-[(2S)-2-methylpyrrolidine-1-carbonyl]thiazole-2-carboxamide], for which the Kd in experiment [1] is 5.7 nM. At full-length human RORγt (at 3 μM compound concentration), the inhibition at 3 µM was 103%. For the same compound, the IC50 on full-length human RORγt (setting [3]) is 0.04 µM.

Take `CC[C@H](Nc1cc(C(F)F)c(-c2sc(C(=O)NC3CCC3O)nc2C(=O)N2CCC[C@@H]2C)cn1)C(F)(F)F` (stereo partly drawn) [Example 379, 5-(4-(Difluoromethyl)-6-(((S)-1,1,1-trifluorobutan-2-yl)amino)pyridin-3-yl)-N-(cis-2-hydroxycyclobutyl)-4-((S)-2-methylpyrrolidine-1-carbonyl)thiazole-2-carboxamide]: the Kd in experiment [1] is 2.4 nM. Also, the “RORγt (FL) Reporter Assay B or C, % inhibition” value at full-length human RORγt (at 3 μM compound concentration) is reported as 101* %. The IC50 on full-length human RORγt (setting [3]) was 0.055 µM.

With `C[C@H](Nc1cc(C(F)F)c(-c2sc(C(=O)N[C@H](C)C(C)(C)O)nc2C(=O)N2CC(F)(F)C[C@@H]2C)cn1)C1CC1` [Example 194, 5-(6-(((S)-1-Cyclopropylethyl)amino)-4-(difluoromethyl)pyridine-3-yl)-4-((S)-4,4-difluoro-2-methylpyrrolidine-1-carbonyl)-N—((R)-3-hydroxy-3-methylbutan-2-yl)thiazole-2-carboxamide], the Kd in experiment [1] is 4.7 nM. Also, the “RORγt … % inhibition (value marked *)” value at full-length human RORγt (Conditions B or C) was 85* %. At full-length human RORγt (setting [2]), the IC50 was 0.088 µM.
